According to patent US20130210034A1, “COMPLEX PHOSPHOPROTEIN ACTIVATION PROFILES” (BECKMAN COULTER, INC., priority 2005, published 2013):
Values joined by “and” are separate entries in the source; they are usually repeats but may differ in a detail not shown here. Equal entries are not always repeated.

Tests used:
Format in all cases: cell-based, human
pS6 [1] = test: Phosphoprotein kinetic profiles in CD34+, CD117+ cells of AML bone marrow samples; conditions: for pS6 Amp (peak amplitude of fold stimulation) / pS6 RI (response interval): CD34^+, CD117^+ cells; for Frequency, pS6: frequency of positive-stained cells; for Positives/Negatives, pS6: ratio of positive- to negative-stained cells
Description: (§1) To assess the signal transduction response after growth factor simulation, 100 to 200 μL of processed samples including about 2×10^6 WBC/100 μL were added to tubes and incubated at 37° C. for 30 minutes. For inhibition experiments, cells were incubated with 100 μM U0126, 1 μg/mL rapamycin, or both for at least 20 minutes prior to cytokine addition and in all cases for 30 min prior to formaldehyde addition. […] After stimulation the cells were immediately fixed by the addition of formaldehyde to a final concentration of 4% v/v and incubated for 10 minutes at room temperature. Following fixation, red blood cells were lysed by the addition of TRITON-X/PBS solution (0.1% v/v final concentration Triton X-100) supplemented with a 1 x phosphatase inhibitor cocktail (PIC; final concentrations: 0.2 mM sodium orthovanadate, 2 mM sodium pyrophosphate decahydrate, 2 mM [3-glycerophosphate, and 10 mM sodium fluoride) and incubation at 37° C. for 20 minutes. The incubated solution was chilled by the addition of ice-cold Wash Buffer (final concentration 1×PBS and either 4% bovine serum albumin (BSA) or 4% heat-inactivated fetal bovine serum (FBS), supplemented with 1×PIC), and the samples were centrifuged at 300 g for 6 minutes at 4° C.). If the lysis was incomplete, samples were retreated with 0.1% Triton X-100 at 37° C. for 10 to 20 minutes. After removal of the supernatant, cells were washed twice in ice-cold Wash Buffer supplemented with 1×PIC and permeabilized by the addition of pre-chilled 80% methanol while simultaneously vortexing the tube and incubated on ice for 10 minutes. Methanol was removed by centrifugation, the pellet was washed with ice-cold 1×PBS, and non-specific binding was blocked by the addition of ice-cold Wash Buffer supplemented with 1×PIC and incubation at 4° C. for a minimum of 30 minutes.
(§2) To stain cells with fluorescent conjugated monoclonal antibodies, the incubated solution was centrifuged to remove the supernatant and the pellet was incubated for 60 minutes at 4° C. with an antibody staining solution including 0.25 μg to 0.50 μg of pS6-Pacific Blue, pERK-ALEXA 488, pSTAT5-ALEXA 647, CD34-PE, CD45-PerCP, and CD117-PC7. Samples were washed three times with ice-cold Wash Buffer supplemented with 1×PIC, resuspended in 0.5 mL ice-cold Wash Buffer supplemented with 1×PIC including 0.5 μg/mL DAPI, and analyzed by flow cytometryusing a BD LSR II Flow Cytometer, equipped with a High Throughput Sampler (HTS).
(§3) First, doublets, aggregates, and debris were excluded by gating on single cell events in the SSC-Area versus SSC-Height histogram. Then, in events passing through this gate, debris near the origin of the FSC-Area versus SSC-Area plot (gray in FIG. 4A) was excluded by drawing a gate around an area encompassing, primarily, lymphocytes, monocytes, and granulocytes (LMG, black in FIG. 4A). Next, in cells passing through the LMG gate, the blast region (circle in FIG. 4B) was identified in the CD45 versus SSC-Area histogram (FIG. 4B). From this blast population, CD34+, CD117+ cells were identified in the CD34 versus CD117 plot (boxed area in FIG. 4C). Finally, these cells were further analyzed for cytokine-mediated increases in phosphorylation by constructing gates in the single parameter histograms (for positively and negatively stained events, i.e., for the phosphorylated and non-phosphorylated forms, respectively, of each protein) for pS6 (FIGS. 4D and 4G), pERK (FIGS. 4E and 4H), and pSTAT5 (FIGS. 4F and 4I). […] The dotted lines in each of these histograms represent unstimulated cells at t=0 min. FCS files were processed with WinList 6.0 3D (Verity Software House).

pERK [2] = test: as above; conditions: for pERK Amp (peak amplitude of fold stimulation) / pERK RI (response interval): CD34^+, CD117^+ cells; for Frequency, pERK: frequency of positive-stained cells; for Positives/Negatives, pERK: ratio of positive- to negative-stained cells; for pERK response, fold greater than in healthy donor samples: SCF: AML1 and AML2, FL: AML1
Description: as §1, §2, §3

pSTAT5 [3] = test: as above
Description: as §1, §2, §3

pS6 [4] = test: Phosphoprotein kinetic profiles in bone marrow samples from healthy donors; conditions: for pS6 Amp (peak amplitude of fold stimulation) / pS6 RI (response interval): CD34^+, CD117^+ cells
Description: (§4) Phosphoprotein kinetic profiles were analyzed in bone marrow aspiration samples from nine healthy, adult donors (i.e., normal bone marrow or NBM) and from five AML patients. Samples from healthy donors included 5 males and 4 females, ranging in age from 26 to 49 years. Approximately 10 to 20 mL of bone marrow (BM) samples were collected from the posterior iliac crest of the volunteers using IRB approved protocols. The BM samples were filtered using a 40 μm Nylon cell strainer to remove marrow particles and the white blood cell concentration determined using a blood analyzer. […] The samples were immediately used for subsequent experimentation.
as §1, §2
(§5) First, doublets, aggregates, and debris were excluded by gating on single cell events in the SSC-Area versus SSC-Height histogram. Then, in events passing through this gate, debris near the origin of the FSC-Area versus SSC-Area plot (gray in FIG. 4A) was excluded by drawing a gate around an area encompassing, primarily, lymphocytes, monocytes, and granulocytes (LMG, black in FIG. 4A). Next, in cells passing through the LMG gate, the blast region (circle in FIG. 4B) was identified in the CD45 versus SSC-Area histogram (FIG. 4B). From this blast population, CD34+, CD117+ cells were identified in the CD34 versus CD117 plot (boxed area in FIG. 4C).

pERK [5] = test: as above; conditions: for pERK Amp (peak amplitude of fold stimulation) / pERK RI (response interval): CD34^+, CD117^+ cells
Description: as §4, §1, §2, §5

pSTAT5 [6] = test: as above; conditions: CD34^+, CD117^+ cells, healthy donor samples
Description: as §4, §1, §2, §5

[7] = SCF-stimulated, healthy donor samples
[8] = SCF-stimulated, mean of healthy donors 6 to 9

## Stem Cell Factor [SCF]
pS6 [1]; AML1 sample (Example 6)
  pS6 Amp (peak amplitude of fold stimulation): 1100
  pS6 RI (response interval): 30 min
pS6 [1]; AML2 sample (Example 6)
  pS6 Amp (peak amplitude of fold stimulation): 620
  pS6 RI (response interval): 30 min
pS6 [1]; SCF-stimulated
  Fold Stimulation, AML to NBM ratio (pS6)AML1/(pS6)D6-9: 110
  Fold Stimulation, AML to NBM ratio (pS6)AML2/(pS6)D6-9: 62
  Frequency, AML to NBM ratio (pS6)AML1/(pS6)D6-9: 3.7
  Frequency, AML to NBM ratio (pS6)AML2/(pS6)D6-9: 3.7
  MFI, AML to NBM ratio (pS6)AML1/(pS6)D6-9: 3.0
  MFI, AML to NBM ratio (pS6)AML2/(pS6)D6-9: 2.3
  Positives/Negatives, AML to NBM ratio (pS6)AML1/(pS6)D6-9: 80
  Positives/Negatives, AML to NBM ratio (pS6)AML2/(pS6)D6-9: 52
pS6 [1]; SCF-stimulated, AML1
  Fold Stimulation, pS6: 1100
  MFI, pS6: 3100
  Frequency, pS6: 96
  Positives/Negatives, pS6: 35
pS6 [1]; SCF-stimulated, AML2
  Fold Stimulation, pS6: 620
  MFI, pS6: 2400
  Frequency, pS6: 97
  Positives/Negatives, pS6: 23
pS6 [1]; SCF-stimulated, AML samples
  frequency of positively stained cells at its maximum, pS6: ~97%
pERK [2]; AML1 sample (Example 6)
  pERK Amp (peak amplitude of fold stimulation): 1600
  pERK RI (response interval): 30 min
pERK [2]; AML2 sample (Example 6)
  pERK Amp (peak amplitude of fold stimulation): 1300
  pERK RI (response interval): 20 min
pERK [2]; SCF-stimulated
  Fold Stimulation, AML to NBM ratio (pERK)AML1/(pERK)D6-9: 30
  Fold Stimulation, AML to NBM ratio (pERK)AML2/(pERK)D6-9: 25
  Frequency, AML to NBM ratio (pERK)AML1/(pERK)D6-9: 1.1
  Frequency, AML to NBM ratio (pERK)AML2/(pERK)D6-9: 1.1
  MFI, AML to NBM ratio (pERK)AML1/(pERK)D6-9: 0.41
  MFI, AML to NBM ratio (pERK)AML2/(pERK)D6-9: 0.35
  Positives/Negatives, AML to NBM ratio (pERK)AML1/(pERK)D6-9: 2.0
  Positives/Negatives, AML to NBM ratio (pERK)AML2/(pERK)D6-9: 1.5
pERK [2]; SCF-stimulated, AML1
  Fold Stimulation, pERK: 1600
  MFI, pERK: 1500
  Frequency, pERK: 88
  Positives/Negatives, pERK: 10
pERK [2]; SCF-stimulated, AML2
  Fold Stimulation, pERK: 1300
  MFI, pERK: 1300
  Frequency, pERK: 90
  Positives/Negatives, pERK: 7.4
pERK [2]; SCF-stimulated, AML samples
  frequency of positively stained cells at its maximum, pERK: approximately 90%
pERK [2]
  pERK response, fold greater than in healthy donor samples: approximately 10 fold
pSTAT5 [3]; AML1 sample (Example 6)
  pSTAT5 Amp (peak amplitude of fold stimulation): 32
pSTAT5 [3]; AML2 sample (Example 6)
  pSTAT5 Amp (peak amplitude of fold stimulation): 2
  pSTAT5 RI (response interval): 6 min
pS6 [4]; healthy donor samples
  pS6 Amp (peak amplitude of fold stimulation): 18 ± 5.1
  pS6 RI (response interval): 28 min and 28 ± 1.2 min
pS6 [4]; [7]
  frequency of positively stained cells at its maximum, pS6: 26%
pS6 [4]; [8]
  Fold Stimulation, pS6: 10
  Frequency, pS6: 26
  MFI, pS6: 1040
  Positives/Negatives, pS6: 0.44
pERK [5]; healthy donor samples
  pERK Amp (peak amplitude of fold stimulation): 120 and 120 ± 28
  pERK RI (response interval): 8.7 min and 8.7 ± 0.3 min
pERK [5]; [7]
  frequency of positively stained cells at its maximum, pERK: 81%
pERK [5]; [8]
  Fold Stimulation, pERK: 53
  Frequency, pERK: 81
  MFI, pERK: 3700
  Positives/Negatives, pERK: 4.9
pSTAT5 [6]
  pSTAT5 Amp (peak amplitude of fold stimulation): 0.8 ± 0.2
  pSTAT5 RI (response interval): Variable

B1: FMS-Like Tyrosine Kinase 3 (FLT-3) ligand (protein, UniProt P49771 27-235, looked up)
Fms-related tyrosine kinase 3 …: TQDCSFQHSPISSDFAVKIRELSDYLLQDYPVTVASNLQDEELCGGLWRLVLAQRWMERLKTVAGSKMQGLLERVNTEIHFVTKCAFQPPPSCLRFVQTNISRLLQETSEQLVALKPWITRQNFSRCLELQCQPDSSTLPPPWSPRPLEATAPTAPQPPLLLLLLLPVGLLLLAAAWCLHWQRTRRRTPRPGEQVPPVPSPQDLLLVEH
pS6 [1]; AML1 sample (Example 6)
  pS6 Amp (peak amplitude of fold stimulation): 140
  pS6 RI (response interval): 30 min
pERK [2]; AML1 sample (Example 6)
  pERK Amp (peak amplitude of fold stimulation): 460
  pERK RI (response interval): 30 min
pERK [2]
  pERK response, fold greater than in healthy donor samples: approximately 10 fold
pSTAT5 [3]; AML1 sample (Example 6)
  pSTAT5 Amp (peak amplitude of fold stimulation): 2
  pSTAT5 RI (response interval): 2 min
pS6 [4]; healthy donor samples
  pS6 Amp (peak amplitude of fold stimulation): 12 and 12 ± 1.4
  pS6 RI (response interval): 37 min and 37 ± 6.0 min
pERK [5]; healthy donor samples
  pERK Amp (peak amplitude of fold stimulation): 51 and 51 ± 11
  pERK RI (response interval): 18 min and 18 ± 1.5 min
pSTAT5 [6]
  pSTAT5 Amp (peak amplitude of fold stimulation): 0.8 ± 0.2
  pSTAT5 RI (response interval): Variable
